A short description of data set [1]: in vitro. The settings on record: rat, 80% rat plasma.
Description: Half life period in 80% rat plasma at 37 degree Centigrade
The conditions of data set [2]: human, plasma.
Description: (§1) Observed rate constant in 80% human plasma at 37 degree Centigrade
The conditions of data set [3]: human, plasma. This is another data set of the same source.
Description: as §1
Data set [4] can be described thus: physchem. The settings on record: dog, in vivo, pH 7.4.
Description: Half life period at a pH 7.4 was determined
A short description of data set [5]: physchem. As to conditions: pH 1.3.
Description: Half life period at a pH 1.3 was determined
For data set [6] the following is noted: pH 7.4.
Description: Observed rate constant at a pH of 7.4
Data set [7] in a line: physchem. As to conditions: octanol/phosphate buffer, pH 7.4.
Description: Partition coefficient value in octanol and phosphate buffer (log P) at pH of 7.4 was determined.
For data set [8] the following is noted: pH 1.3.
Description: Observed rate constant at a pH of 1.3
For data set [9] the following is noted: human, plasma. This is another data set of the same source.
Description: (§2) Half life period in 80% human plasma at 37 degree Centigrade
Data set [10] in a line: in vitro. As to conditions: human, 80% human plasma, T1/2.
Description: as §2

“And” between values parts separate entries of the source, which are not always exact repeats. Identical values can stand only once.

Description for Rattus norvegicus: Observed rate constant in 80% rat plasma at 37 degree Centigrade

`COC(=O)[C@H](Cc1ccc(OC(C)=O)c(OC(C)=O)c1)NC(=O)CCC(=O)N[C@@H](Cc1ccc(OC(C)=O)c(OC(C)=O)c1)C(=O)OC`: the half-life in the data set “in vitro [1]” is 0.0333 h; in “physchem [4]”, 16.2 h; in the data set “physchem [5]”, 55.4 h. In data set [2], this compound gave a k1 obs of 0.052 min⁻¹. This compound also yielded a k2 obs in data set [3] of 0.0086 min⁻¹. The results for the K obs (in the data set listed under Rattus norvegicus; in data set [6]; in data set [8]) were 0.34 min⁻¹, 0.043 h⁻¹ and 0.13 h⁻¹, respectively. Moreover, in the data set “physchem [7]”, the logD worked out at 0.85.
On to `COC(=O)[C@H](Cc1ccc(OC(C)=O)c(OC(C)=O)c1)NC(=O)CCCC(=O)N[C@@H](Cc1ccc(OC(C)=O)c(OC(C)=O)c1)C(=O)OC`, for which the half-life in “in vitro [1]” is 0.0483 h; in the data set “physchem [4]”, 13.9 h; in “physchem [5]”, 68.1 h. The k1 obs in [2] stood at 0.011 min⁻¹. The same compound displayed a k2 obs in data set [3] of 0.0045 min⁻¹. The T1/2 in data set [9] is 1.05 h and 2.57 h. Further, the values for the K obs (in the data set listed under Rattus norvegicus; in data set [6]; in [8]) were 0.24 min⁻¹, 0.05 h⁻¹ and 0.01 h⁻¹, respectively. The logD in the data set “physchem [7]” came to 0.87.
Regarding `COC(=O)[C@H](Cc1ccc(OC(C)=O)c(OC(C)=O)c1)NC(=O)N[C@@H](Cc1ccc(OC(C)=O)c(OC(C)=O)c1)C(=O)OC`, the half-life in “in vitro [1]” was 0.407 h; in the data set “physchem [4]”, 14.2 h; in “physchem [5]”, 16.5 h. Besides, in data set [2], the k1 obs amounted to 0.0068 min⁻¹. The same compound registered a k2 obs in data set [3] of 0.0025 min⁻¹. The T1/2 in data set [9] was 1.698 h and 4.62 h. For the same compound, the K obs in the data set filed under Rattus norvegicus is 0.028 min⁻¹; in data set [6], 0.049 h⁻¹; in data set [8], 0.042 h⁻¹. Moreover, the log distribution coefficient (logD) in “physchem [7]” was 1.04.
For the compound `COC(=O)[C@H](Cc1ccc(OC(C)=O)c(OC(C)=O)c1)NC(=O)C(=O)N[C@@H](Cc1ccc(OC(C)=O)c(OC(C)=O)c1)C(=O)OC`, the half-life in the data set “in vitro [1]” is 0.102 h; in “in vitro [10]” it was 1.38 h; in “physchem [4]”, 14.2 h; in “physchem [5]”, 20 h. This compound also came in with a k1 obs in data set [2] of 0.0083 min⁻¹. Also, the k2 obs in data set [3] was determined as 0.0045 min⁻¹. The compound further returned a T1/2 in data set [9] of 2.547 h. In addition, the K obs stood at 0.11 min⁻¹ in the data set listed under Rattus norvegicus, 0.049 h⁻¹ in data set [6] and 0.032 h⁻¹ in [8]. The compound further yielded a logD in “physchem [7]” of 0.73.
In the case of `COC(=O)[C@H](Cc1ccc(OC(C)=O)c(OC(C)=O)c1)NC(=O)CCCCC(=O)N[C@@H](Cc1ccc(OC(C)=O)c(OC(C)=O)c1)C(=O)OC`, the half-life in “in vitro [1]” was 0.0683 h; in the data set “physchem [4]” it was 17.3 h; in the data set “physchem [5]” it was 48.8 h. In addition, the k1 obs in data set [2] came to 0.081 min⁻¹. For the same compound, the k2 obs in [3] turned out to be 0.01 min⁻¹. Moreover, the K obs in the data set listed under Rattus norvegicus is 0.17 min⁻¹; in data set [6], 0.04 h⁻¹; in data set [8], 0.014 h⁻¹. This compound gave a logD in “physchem [7]” of 0.92.

The half-life is the time needed for the level to fall by half in the phase considered. The low end stands for fast loss, the high end for slow loss. In general, logD refers to lipophilicity at a set pH, counting ionised and neutral species.
